“Also recorded” adds a separate entry of the source.
Legend:
[1] = biological target: T1, BRD2-BD2 (Homo sapiens, UniProt P25440); test: Protein Thermal Shift (PTS) assay on BRD2-BD2; type: binding; conditions: 100 μM ligand, 20 μM BD protein; positive = Tm increase
T1 construct: polyhistidine (N, cleaved yes); made in house; host or cells: E. coli (T7 express)
Procedure: The genes encoding human BRD2-BD1, BRD2-BD2, and BRD4-BD2 were codon-optimized for expression in E. coli. […] The sequence-confirmed plasmids were used to transform T7 express E coli. Large-scale cell cultures were grown in LB media containing […] carbenicillin and incubated with shaking at 37° C. until the OD600 nm reached 0.6. Then cultures were cooled to 16° C., and 1 mM isopropyl β-D-1-thiogalactopyranoside was added to induce the protein expression. After 20 hours of incubation, cells were harvested. The resulting cell pellet was resuspended in a lysis buffer containing 50 mM Tris pH 7.5, 200 mM NaCl, 0.5 mM imidazole, and 0.3 mM tris(2-carboxyethyl) phosphine (TECP). After the addition of DNase I and lysozyme, the cell suspension was incubated on ice for 30 minutes and lysed by sonication. The lysate was clarified by centrifugation at 12,000 rpm for 45 minutes. […]
Each reaction used 20 μM concentration of recombinant BD protein in a 50 mM Tris pH 7.5 buffer containing 100 mM NaCl, 0.3 mM tris(2-carboxyethyl) phosphine HCl, and 1% dimethyl sulfoxide. […] Evaluation of the derivative of the fluorescence signal employed the Applied Bioscience Protein Thermal Shift Software version 1.3 to determine the average melting temperature (Tm) for each sample and the standard deviation(s) of those Tm values.

[2] = tested on: ONS-76 cells; test: CD15+ tumor propagating cell population by FACS; type: cell-based; conditions: 5.0 μM, 48 hours, vs control
Procedure: The tumor propagating cell population in ONS-76 cells was identified based on CD15+ staining by fluorescence-activated cell sorting (FACS) analysis. […] Then, cells were trypsinized and 1×10^6 cells stained with a 5 μL aliquot of APC-CD15 antibody (BioLegend; 301,908) and analyzed with flow cytometry (BD, LSR Fortessa).

[3] = tested on: MB cells; test: RT-qPCR of target genes; type: cell-based, human; conditions: RT-PCR
Procedure: Whole RNAs in cells after treatments were extracted using an RNA extraction kit (RNAeasy, Qiagen) to detect mRNA expression. cDNA templates were synthesized by reverse transcribing the RNA using a High-Capacity RNA-to-cDNA™ Kit (Thermo Fisher). The final RT-qPCR reaction mixture was used consisting of a total volume 10 μl containing […] SYBR Green master mix, 0.5 μl of each primer (10 μM) (Table 1), 2 μl of the cDNA template, and 3.5 μl RNase-free H2O. The relative expression level of the targeted gene was measured with Lightcycler 480 (Roche). The gene expression levels were calculated according to the 2^−ΔΔCq method using β-actin as the internal reference gene. Each assay was repeated≥3 times.

[4] = tested on: DAOY cell generated orthotopic MB; test: Intracranial orthotopic MB xenograft model; type: in vivo, NSG mice; conditions: for tumor at cerebellum region by H&E and Ki-67 IHC: vehicle-treated vs treated mice
Procedure: For the orthotopic MB model, stable luciferase-expressing DAOY cells (0.1×10^6) were used to generate the orthotopic MB tumor in NSG mice (Kumar, et al. (2021) Biomaterials 278:121138). Bioluminescence imaging using IVIS (Spectrum) was done to monitor the tumor growth weekly after implantation surgery.
A total of seven injections were given, and the mouse body weights were measured before every injection. The tumor growth was monitored by calipers in the case of the xenograft model and by IVIS imaging for the orthotopic model. For histological examination, the major organs of representative mice from each animal group were dissected and stained with H&E. Tissues after being fixed with 10% paraformaldehyde solution for 24 hours were embedded in 5 μm thick sections of paraffin, and were stained for different proteins. Stained slides were imaged at 40× magnification using an iScan HT Slide Scanner (Ventana Medical Systems, Inc, AZ).
Next, it was tested whether MDP5 treatment suppresses MB growth in an intracranial orthotopic xenograft model. DAOY cells stably expressing green fluorescent protein (GFP)/luciferase were injected into the cerebella of NSG mice. After twenty-one days of implantation, the tumor signal was measured with IVIS, and animals were divided into the vehicle (propylene glycol) or MDP5 treated groups. A drug solution was injected every three days for 28 days, and bioluminescence imaging was performed once a week.

[5] = tested on: MB cells (DAOY and HD-MB03); test: Colony formation (clonogenic) assay; type: cell-based, human; conditions: 48 hours treatment, 14-day incubation, both cell lines
Procedure: Approximately 500 MB cells were seeded overnight in 6 well plates and treated with MDP5 at IC50 for the colony formation assay. After 48 hours of incubation, the media was replaced by fresh media and allowed cells to grow for 2 weeks. Then, cells were fixed into 10% formalin and stained with a 0.5% solution of crystal violet dye in 20% methanol. After taking pictures, the colonies were dissolved in 10% acetic acid solution to measure the optical density.
Colony formation ability, cell cycle analysis, and cell apoptosis assay were performed in MB cells in presence of drugs as described (Kumar et al. (2021) Biomaterials 278:121138). For the colony formation assay, after taking images, the colonies were dissolved in 10% acetic acid solution to measure the optical density (OD).

[6] = tested on: DAOY and HD-MB03 spheroids; test: Tumor spheroid live/dead assay; type: cell-based, human; conditions: 5.0 μM, 7 days
Procedure: Tumor spheroids were formed using MB cells following the method described (Bhattarai, et al. (2021) J. Control. Release 329:585-597). For tumor spheroids assay, 1500 and 500 DAOY and HD-MB03 cells, respectively, were suspended in 100 μL media and seeded in ultra-low attachment (ULA) 96-well plate for a week and 50 μL of media was replaced by fresh media every third day and spheroid size was tracked under fluorescent microscope. […] After 7 days of the treatment period, spheroids were stained with Calcein AM (2 μM) and ethidium homodimer-1 (3 μM) (LIVE/DEAD™; L3224) to check the live/dead cells. Images were taken by confocal laser microscope (Zesis LSM 710) with 10× magnification at 40 μm depth.

T1 sequence (P25440 344-453 limits assumed): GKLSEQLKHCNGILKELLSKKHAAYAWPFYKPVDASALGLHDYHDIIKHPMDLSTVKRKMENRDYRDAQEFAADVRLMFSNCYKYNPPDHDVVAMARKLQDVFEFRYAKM

## O=c1cc(N2CCOCC2)oc2c(-c3ccc4c(c3)OCCO4)cccc12 [MDP5, 8-(2,3-dihydrobenzo [b][1,4]dioxin-6-yl)-2-morpholino-4H-chromen-4-one]
[1]
  change in BRD2-BD2 melting temperature (Tm): 2.4 °C
[2]
  percentage of CD15+ cell population: declined as compared to control cells
[3]; MB cells
  BCL2 mRNA expression: significantly reduced
[3]; vs control
  cyclin D1 gene expression: decreased significantly
[4]; control animals all dead by day 35
  survival: four animals out of five survived up to 49 days; also recorded: prolonged the survival
[4]; injection every three days for 28 days
  orthotopic tumor growth (IVIS imaging): significant effect on the suppression of tumor growth; also recorded: significantly suppressed tumor growth in vivo
[4]
  tumor at cerebellum region by H&E and Ki-67 IHC: much larger tumor at the cerebellum region of the vehicle-treated mouse
[4]; vs rapid increase in control animals
  bioluminescence (BLI) signal: low BLI signal
[5]
  colony formation: significant decrease in colony formation potential; also recorded: lower number of colonies in both cell lines; also recorded: significantly decreased the colony formation capacity
[6]
  cell viability of tumor spheroids: significantly decreased
[6]; vs DMSO-treated control
  size / formation of tumor spheroids: decreased the tumor spheroid formation in both MB cells

## O=c1cc(N2CCOCC2)oc2c(-c3ccc4c(c3)OCCO4)csc12 [SF2523, reference compound]
[1]
  change in BRD2-BD2 melting temperature (Tm): 6.3 °C
[4]
  tumor at cerebellum region by H&E and Ki-67 IHC: much larger tumor at the cerebellum region of the vehicle-treated mouse
[6]
  cell viability of tumor spheroids: significantly decreased

Reference: patent US20260069599A1, “INHIBITORS OF BROMODOMAIN-CONTAINING PROTEIN 4 AND PHOSPHOINOSITIDE 3-KINASE” (Board of Regents of the University of Nebraska, priority 2022, published 2026)
